Activity calls are given as the source filed them.
Columns and labels:
[1] = target: Cytochrome P450 2C19 (Homo sapiens, UniProt P33261); assay: qHTS Assay for Inhibitors and Substrates of Cytochrome P450 2C19. [Related pubchem assays: 410 ]; format: ADME; conditions: read-out: Potency
[2] = target: Cytochrome P450 2D6 (Homo sapiens, UniProt P10635); assay: qHTS Assay for Inhibitors and Substrates of Cytochrome P450 2D6. [Related pubchem assays: 410 ]; format: ADME; conditions: read-out: Potency
[3] = Luminescence Cell-Based Dose Confirmation HTS to Identify Inhibitors of Polyadenylation.; format: functional
[4] = target: Peroxisome proliferator-activated receptor gamma/Nuclear receptor corepressor 2 (Homo sapiens, UniProt P37231+Q9Y618); assay: Counterscreen for NR2E3 inverse agonists: TR-FRET-based biochemical high throughput dose response assay to identify inverse agonists of the interaction between peroxisome proliferator-activated receptor gamma (PPARg) and nuclear receptor co-repressor 2 (NCOR2).; format: functional
[5] = target: Photoreceptor-specific nuclear receptor (Homo sapiens, UniProt Q9Y5X4); assay: ligands suppressing NR2E3 nuclear receptor activity – biochemical, TR-FRET, dose response (AID 463256); format: functional
[6] = Luminescent dose response cell-based high throughput screening assay for inhibitors of the Janus kinase 2 mutant JAK2V617F. [Related pubchem assays: 1446 (Primary screen.), 1521 (Confirmation assay.), 1486 (Counter screen.)]; format: functional
[7] = system: HEK293; assay: inhibition of NOD1-driven NF-kB reporter – cell-based, luminescence, uHTS, primary screen (AID 1578); format: functional; conditions: Homo sapiens
[8] = system: BJ; assay: BJ-TERT fibroblast viability loss – cell-based, RAS-independent, luminescence, dose response (AID 1933); format: functional; conditions: Homo sapiens
[9] = system: HEK293; assay: cells; format: functional, cell-based; conditions: Homo sapiens
[10] = system: BJ; assay: cells; format: functional, cell-based; conditions: Homo sapiens, read-out: EC50
[11] = system: HEK293; assay: cells; format: functional, cell-based; conditions: Homo sapiens; remark: listed apart in the source
[12] = system: HEK293; assay: NOD2 signaling inhibitors in MDP-stimulated cells, cell-based, uHTS, luminescence (AID 2001); format: functional; conditions: Homo sapiens
[13] = system: BJ; assay: BJ-TERT-LT-ST fibroblast viability loss – cell-based, RAS-independent, luminescence, dose response (AID 1935); format: functional; conditions: Homo sapiens;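 also: BJ fibroblasts immortalized with TERT plus LT and ST oncogenes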
[14] = DRD fibroblast viability loss – cell-based, non-viral oncogenic, luminescence, dose response (AID 1934); format: functional; conditions: Homo sapiens
[15] = target: Tumor necrosis factor (Homo sapiens, UniProt P01375); assay: analog potency on TNFa NF-kB signaling – cell-based, revised, SAR follow-up (AID 2337); format: functional
[16] = target: T1, Nucleotide-binding oligomerization domain-containing protein 1 (Homo sapiens, UniProt Q9Y239); assay: blockers of NOD1 pathway activity – revised, SAR follow-up (AID 2333); format: functional
T1 sequence (Q9Y239 whole entry): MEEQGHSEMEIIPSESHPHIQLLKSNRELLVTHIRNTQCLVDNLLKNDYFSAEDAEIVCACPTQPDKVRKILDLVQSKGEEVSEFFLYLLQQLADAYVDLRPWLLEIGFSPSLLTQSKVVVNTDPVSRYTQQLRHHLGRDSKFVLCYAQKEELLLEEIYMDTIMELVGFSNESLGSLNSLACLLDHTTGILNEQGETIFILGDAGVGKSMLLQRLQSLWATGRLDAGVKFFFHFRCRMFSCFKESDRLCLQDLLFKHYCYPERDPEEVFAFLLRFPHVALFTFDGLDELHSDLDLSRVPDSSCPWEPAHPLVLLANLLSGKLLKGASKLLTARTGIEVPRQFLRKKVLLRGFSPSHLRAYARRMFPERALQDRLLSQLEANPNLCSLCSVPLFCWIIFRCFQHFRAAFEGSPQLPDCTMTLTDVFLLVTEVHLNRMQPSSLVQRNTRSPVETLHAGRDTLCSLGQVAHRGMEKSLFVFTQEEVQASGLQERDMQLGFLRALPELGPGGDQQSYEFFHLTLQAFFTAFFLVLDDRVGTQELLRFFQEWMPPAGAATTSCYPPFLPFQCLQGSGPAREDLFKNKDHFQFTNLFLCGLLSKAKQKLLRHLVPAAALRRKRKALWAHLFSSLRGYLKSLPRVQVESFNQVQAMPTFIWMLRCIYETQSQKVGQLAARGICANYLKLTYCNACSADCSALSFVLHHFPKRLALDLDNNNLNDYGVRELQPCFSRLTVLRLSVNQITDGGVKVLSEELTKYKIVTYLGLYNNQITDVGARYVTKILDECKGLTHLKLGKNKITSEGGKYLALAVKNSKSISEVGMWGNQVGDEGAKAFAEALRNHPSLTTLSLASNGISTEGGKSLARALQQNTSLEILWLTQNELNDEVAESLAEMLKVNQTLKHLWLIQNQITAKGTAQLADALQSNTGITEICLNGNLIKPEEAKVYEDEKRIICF

[17] = system: BJ; assay: growth inhibition of engineered Ras-driven BJ cells – cell-based, alamar blue fluorescence, cherrypicked samples, dose response (AID 2631); format: functional; conditions: Homo sapiens;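 also: confirmatory dose-response assay in RAS-dependent BJ fibroblasts engineered with TERT, LT and ST, with cytotoxicity read by fluorescence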
[18] = system: Vero; assay: cells; format: functional; conditions: Chlorocebus sabaeus
[19] = system: HEK293; assay: cells; conditions: Homo sapiens
[20] = target: Glyceraldehyde-3-phosphate dehydrogenase (Homo sapiens, UniProt P04406)
[21] = target: T2, Bcl-2-related protein A1 (Mus musculus, UniProt Q07440); assay: small-molecule antagonists of Bfl-1/BH3 interaction – biochemical, TR-FRET, mouse Bfl-1, confirmation (AID 621);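 also: TR-FRET binding of GST-Bfl-1 to FITC-labelled Bid peptide via terbium antibody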
[22] = target: T2, Bcl-2-related protein A1; assay: Bfl-1 binding inhibitors, SAR follow-up, biochemical, fluorescence polarization (AID 1070)

T2 sequence (Q07440 whole entry): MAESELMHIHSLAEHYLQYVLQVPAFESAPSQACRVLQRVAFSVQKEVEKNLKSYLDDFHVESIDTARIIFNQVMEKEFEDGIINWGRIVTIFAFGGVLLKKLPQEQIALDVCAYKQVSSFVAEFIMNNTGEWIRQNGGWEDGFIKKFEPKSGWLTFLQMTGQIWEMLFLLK
Glyceraldehyde-3-phosphate dehydrogenase, sequence (P04406 whole entry): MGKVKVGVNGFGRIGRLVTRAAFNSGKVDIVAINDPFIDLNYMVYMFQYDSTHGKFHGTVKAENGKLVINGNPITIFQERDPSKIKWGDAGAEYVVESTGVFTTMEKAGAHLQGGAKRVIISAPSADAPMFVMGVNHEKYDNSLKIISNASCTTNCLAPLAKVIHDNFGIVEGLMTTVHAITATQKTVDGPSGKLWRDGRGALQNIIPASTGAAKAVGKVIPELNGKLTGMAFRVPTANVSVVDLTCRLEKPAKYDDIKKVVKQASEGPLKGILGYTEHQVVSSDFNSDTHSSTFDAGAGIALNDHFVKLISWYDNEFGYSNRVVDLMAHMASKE
Peroxisome proliferator-activated receptor gamma/Nuclear receptor corepressor 2, sequence (P37231 whole entry): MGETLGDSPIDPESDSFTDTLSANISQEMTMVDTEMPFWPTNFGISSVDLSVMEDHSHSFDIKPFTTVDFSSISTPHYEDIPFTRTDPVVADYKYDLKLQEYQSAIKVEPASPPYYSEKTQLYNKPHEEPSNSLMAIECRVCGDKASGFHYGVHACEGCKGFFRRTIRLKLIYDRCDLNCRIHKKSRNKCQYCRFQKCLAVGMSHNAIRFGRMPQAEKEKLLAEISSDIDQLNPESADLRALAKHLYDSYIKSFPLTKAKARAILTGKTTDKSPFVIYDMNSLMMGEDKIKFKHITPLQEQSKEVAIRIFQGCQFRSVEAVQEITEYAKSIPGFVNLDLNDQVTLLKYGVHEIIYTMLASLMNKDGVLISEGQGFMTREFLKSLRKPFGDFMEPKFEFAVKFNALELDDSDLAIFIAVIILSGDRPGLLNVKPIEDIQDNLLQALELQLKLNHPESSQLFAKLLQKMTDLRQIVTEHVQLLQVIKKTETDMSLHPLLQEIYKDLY
Peroxisome proliferator-activated receptor gamma/Nuclear receptor corepressor 2, sequence (Q9Y618 whole entry): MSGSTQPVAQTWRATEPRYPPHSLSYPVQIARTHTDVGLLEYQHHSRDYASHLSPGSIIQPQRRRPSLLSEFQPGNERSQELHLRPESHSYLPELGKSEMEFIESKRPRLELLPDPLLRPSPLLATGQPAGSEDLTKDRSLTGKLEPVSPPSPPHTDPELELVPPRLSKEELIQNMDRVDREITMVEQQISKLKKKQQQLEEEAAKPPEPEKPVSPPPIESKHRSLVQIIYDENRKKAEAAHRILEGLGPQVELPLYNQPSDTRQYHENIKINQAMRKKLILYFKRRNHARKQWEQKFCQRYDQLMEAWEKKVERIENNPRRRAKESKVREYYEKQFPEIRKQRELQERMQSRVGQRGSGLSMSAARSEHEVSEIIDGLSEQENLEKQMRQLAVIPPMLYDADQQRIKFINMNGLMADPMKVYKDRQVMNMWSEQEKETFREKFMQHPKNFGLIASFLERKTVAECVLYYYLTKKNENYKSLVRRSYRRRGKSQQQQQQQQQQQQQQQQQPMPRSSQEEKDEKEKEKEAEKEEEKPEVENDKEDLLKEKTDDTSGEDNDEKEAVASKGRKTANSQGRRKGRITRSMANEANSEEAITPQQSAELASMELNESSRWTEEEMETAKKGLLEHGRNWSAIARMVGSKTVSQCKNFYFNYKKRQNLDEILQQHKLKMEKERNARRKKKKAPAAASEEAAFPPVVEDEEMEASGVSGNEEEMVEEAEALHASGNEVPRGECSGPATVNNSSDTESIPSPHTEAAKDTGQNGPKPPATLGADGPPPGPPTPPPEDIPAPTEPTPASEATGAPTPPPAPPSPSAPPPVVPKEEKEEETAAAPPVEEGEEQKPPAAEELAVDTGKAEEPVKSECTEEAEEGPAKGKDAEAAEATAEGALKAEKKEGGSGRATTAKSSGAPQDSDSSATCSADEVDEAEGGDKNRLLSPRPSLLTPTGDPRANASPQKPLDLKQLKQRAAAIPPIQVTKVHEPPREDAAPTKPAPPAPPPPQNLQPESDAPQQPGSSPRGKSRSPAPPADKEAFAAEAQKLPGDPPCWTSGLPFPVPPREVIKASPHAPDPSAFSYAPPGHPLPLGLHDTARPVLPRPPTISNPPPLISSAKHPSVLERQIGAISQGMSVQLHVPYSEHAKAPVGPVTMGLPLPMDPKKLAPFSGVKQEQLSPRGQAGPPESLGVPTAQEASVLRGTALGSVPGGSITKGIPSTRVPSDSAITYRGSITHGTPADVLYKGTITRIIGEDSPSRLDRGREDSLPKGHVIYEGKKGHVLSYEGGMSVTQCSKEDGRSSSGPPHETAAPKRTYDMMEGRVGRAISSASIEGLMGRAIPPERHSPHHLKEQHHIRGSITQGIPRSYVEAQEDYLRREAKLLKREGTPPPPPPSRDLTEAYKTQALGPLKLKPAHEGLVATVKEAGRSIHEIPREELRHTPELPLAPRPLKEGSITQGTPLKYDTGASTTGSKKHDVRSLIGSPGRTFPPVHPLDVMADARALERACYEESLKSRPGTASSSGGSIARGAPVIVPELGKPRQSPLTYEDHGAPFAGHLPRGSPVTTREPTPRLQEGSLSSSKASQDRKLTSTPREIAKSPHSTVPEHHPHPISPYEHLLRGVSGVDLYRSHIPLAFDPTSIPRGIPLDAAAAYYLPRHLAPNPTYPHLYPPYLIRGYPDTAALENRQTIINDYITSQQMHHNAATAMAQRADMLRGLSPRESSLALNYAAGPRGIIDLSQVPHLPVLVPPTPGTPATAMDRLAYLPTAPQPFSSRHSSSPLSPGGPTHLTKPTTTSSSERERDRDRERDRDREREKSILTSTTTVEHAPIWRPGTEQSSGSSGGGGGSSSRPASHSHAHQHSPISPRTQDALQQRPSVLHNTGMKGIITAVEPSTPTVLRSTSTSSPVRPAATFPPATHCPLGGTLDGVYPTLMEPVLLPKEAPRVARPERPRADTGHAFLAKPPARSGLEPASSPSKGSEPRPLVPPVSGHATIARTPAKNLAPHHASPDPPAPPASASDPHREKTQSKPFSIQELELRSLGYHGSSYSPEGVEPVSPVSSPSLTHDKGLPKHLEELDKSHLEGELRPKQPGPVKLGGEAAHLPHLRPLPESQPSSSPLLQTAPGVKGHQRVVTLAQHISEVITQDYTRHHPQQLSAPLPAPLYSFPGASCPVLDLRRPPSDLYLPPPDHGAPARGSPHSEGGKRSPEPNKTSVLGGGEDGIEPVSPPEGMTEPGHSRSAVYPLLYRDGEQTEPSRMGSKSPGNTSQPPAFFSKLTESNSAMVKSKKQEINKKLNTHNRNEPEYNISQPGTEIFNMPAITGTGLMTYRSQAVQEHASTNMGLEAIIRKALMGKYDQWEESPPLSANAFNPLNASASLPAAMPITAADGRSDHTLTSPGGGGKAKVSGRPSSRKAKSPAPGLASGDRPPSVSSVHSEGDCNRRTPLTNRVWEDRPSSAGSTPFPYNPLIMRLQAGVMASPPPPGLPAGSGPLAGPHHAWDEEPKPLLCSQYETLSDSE
Cytochrome P450 2C19, sequence (P33261 whole entry): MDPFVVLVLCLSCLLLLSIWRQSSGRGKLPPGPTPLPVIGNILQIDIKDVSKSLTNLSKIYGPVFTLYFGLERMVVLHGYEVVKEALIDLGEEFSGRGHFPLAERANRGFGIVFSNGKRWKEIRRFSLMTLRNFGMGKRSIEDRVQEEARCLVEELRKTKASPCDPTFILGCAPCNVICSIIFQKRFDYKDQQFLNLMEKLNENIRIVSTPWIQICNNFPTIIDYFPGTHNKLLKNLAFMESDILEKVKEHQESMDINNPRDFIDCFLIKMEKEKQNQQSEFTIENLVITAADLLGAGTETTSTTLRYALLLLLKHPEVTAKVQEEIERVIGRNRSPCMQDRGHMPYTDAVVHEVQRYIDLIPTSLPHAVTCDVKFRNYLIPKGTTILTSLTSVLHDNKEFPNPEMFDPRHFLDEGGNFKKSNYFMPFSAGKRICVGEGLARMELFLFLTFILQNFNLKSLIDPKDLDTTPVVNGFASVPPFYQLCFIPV
Tumor necrosis factor, sequence (P01375 whole entry, the tested form may be a part): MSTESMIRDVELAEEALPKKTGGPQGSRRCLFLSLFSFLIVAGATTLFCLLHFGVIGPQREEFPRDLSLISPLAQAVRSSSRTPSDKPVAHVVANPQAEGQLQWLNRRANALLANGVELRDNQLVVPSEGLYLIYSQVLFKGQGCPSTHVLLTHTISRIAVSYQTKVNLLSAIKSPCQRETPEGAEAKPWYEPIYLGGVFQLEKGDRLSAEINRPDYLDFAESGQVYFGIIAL
Cytochrome P450 2D6, sequence (P10635 whole entry): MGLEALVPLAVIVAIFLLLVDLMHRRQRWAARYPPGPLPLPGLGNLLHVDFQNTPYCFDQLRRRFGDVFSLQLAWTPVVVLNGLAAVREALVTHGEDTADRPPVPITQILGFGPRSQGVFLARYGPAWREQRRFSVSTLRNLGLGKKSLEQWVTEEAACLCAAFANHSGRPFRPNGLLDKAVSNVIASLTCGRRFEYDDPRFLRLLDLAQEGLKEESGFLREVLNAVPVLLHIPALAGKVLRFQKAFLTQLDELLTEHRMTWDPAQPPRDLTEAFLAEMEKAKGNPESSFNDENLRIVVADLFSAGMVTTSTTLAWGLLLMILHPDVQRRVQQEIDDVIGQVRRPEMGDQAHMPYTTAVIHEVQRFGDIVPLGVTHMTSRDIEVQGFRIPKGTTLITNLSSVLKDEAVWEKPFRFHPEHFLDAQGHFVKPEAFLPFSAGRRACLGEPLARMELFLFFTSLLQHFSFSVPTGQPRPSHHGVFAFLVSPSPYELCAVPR

For `COC(=O)NC(/C(C(=O)OC)=C(\C)NCc1ccccc1)c1cccc(F)c1` (configuration not stated), the AC50 [1] was 7.94 µM (inconclusive) and the AC50 [2] was 5.01 µM (inconclusive).

In the case of `COc1ccccc1N1CCN(C(=O)CCNS(=O)(=O)c2ccc(Br)s2)CC1`, the EC50 [3] is reported as > 120 µM (not active).

With `Cc1ccc2oc(=O)cc(CN3CCCCC3)c2c1` the IC50 [4] was > 39.8 µM (not active) and the IC50 [5] was 7.54 µM (active).

In the case of `Cc1cccc(Nc2nc(N)nc(CCl)n2)c1C`, the IC50 [6] is reported as 0.628 µM (active), the EC50 [7] is reported as 10.8 µM (active) and the EC50 [8] is reported as 2.19 µM (inconclusive). The IC50 [9] was 9.12 µM (active), the EC50 [10] was 2.02 µM (active) and the IC50 [11] was > 20 µM (inactive). The IC50 [12] was 9.47 µM (active), the EC50 [13] was > 75 µM (inconclusive) and the EC50 [14] was 0.65 µM (active). For the same compound, the IC50 [15] was 9.45 µM (active), the IC50 [16] was 4.04 µM (active) and the EC50 [17] was 6.44 µM (active). The CC50 [18] was 2.11 µM (active) and the IC50 [19] was > 20 µM (inactive).

For `COc1cccc(-c2cc(C(F)(F)F)nc(S(C)(=O)=O)n2)c1`, the IC50 [20] was > 100 µM (not active), the IC50 [21] was 2.24 µM (active) and the IC50 [22] was 6.78 µM (active).

Source: ChEMBL document CHEMBL1201862, “PubChem BioAssay data set” (2004)
